From US9056891B2, “Synthetic peptide inhibitors of Wnt pathway” (The United States of America, as represented by the …, priority 2010, dated 2015)
Where a SMILES comes first, the peptide text is derived from it. [ ]: non-standard residue; d: D form. The star is where a group is joined. Palmitoyl = CCCCCCCCCCCCCCCC(=O)*

What was measured:
4T1 cells = experiment: Toxicity (growth inhibition) for 4T1 cells; format: cell-based, mouse
Experimental: To identify a mouse model for preclinical development of compounds, mouse cell lines were tested for (1) growth inhibition by the compounds and (2) the levels of constitutive Wnt signaling TCF-reporter activity using transfection of cell with TCF/LEF-responsive firefly luciferase construct. The data further confirmed that sensitivity to compounds correlated well with the levels of canonical Wnt signaling.
Based on the data, mouse breast cancer cell line 4T1 was selected for in vivo testing.
(§1) Further optimization and testing of inhibitors was performed using this cell line. Table 5 presents toxicity data for select inhibitors for 4T1 cells and human colon cancer cell line SW-480, wherein GI50 is the concentration providing 50% growth inhibition and TGI is the total growth inhibition.

GFP-tagged beta-catenin = target: T1, GFP-tagged beta-catenin (Homo sapiens, UniProt P35222); experiment: Microscale thermophoresis of GFP-tagged beta-catenin; format: binding; conditions: HEK293 lysate, membrane-mimicking bicelles, Hill fit
T1 construct: made in house; host or cells: HEK293 cells (unpurified lysate)
T1 sequence (P35222 1-781): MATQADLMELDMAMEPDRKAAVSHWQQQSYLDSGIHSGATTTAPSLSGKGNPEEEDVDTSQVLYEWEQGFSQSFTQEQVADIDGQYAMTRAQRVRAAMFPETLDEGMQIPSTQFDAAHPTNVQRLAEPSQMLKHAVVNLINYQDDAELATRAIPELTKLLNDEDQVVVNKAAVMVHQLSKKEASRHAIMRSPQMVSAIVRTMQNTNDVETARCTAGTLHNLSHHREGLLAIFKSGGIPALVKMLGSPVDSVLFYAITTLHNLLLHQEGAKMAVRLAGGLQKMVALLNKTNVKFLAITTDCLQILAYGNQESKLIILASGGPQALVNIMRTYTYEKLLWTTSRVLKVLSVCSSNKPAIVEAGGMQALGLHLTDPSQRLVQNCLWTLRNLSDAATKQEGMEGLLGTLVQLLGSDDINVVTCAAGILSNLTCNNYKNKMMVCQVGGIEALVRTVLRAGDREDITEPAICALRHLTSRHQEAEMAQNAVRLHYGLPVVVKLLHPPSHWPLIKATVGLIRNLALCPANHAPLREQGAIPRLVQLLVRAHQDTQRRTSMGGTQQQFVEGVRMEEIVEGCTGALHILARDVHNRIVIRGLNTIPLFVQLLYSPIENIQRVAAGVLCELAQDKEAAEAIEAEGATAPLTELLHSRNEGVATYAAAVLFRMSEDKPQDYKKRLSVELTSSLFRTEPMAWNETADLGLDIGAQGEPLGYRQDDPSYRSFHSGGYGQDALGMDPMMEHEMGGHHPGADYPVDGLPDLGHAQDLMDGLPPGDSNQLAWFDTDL
Experimental: Briefly, beta-catenin was overexpressed as a GFP-fusion in HEK293 cells. The cells were lysed with ultrasound, and the resulting lysate was mixed with increasing concentrations of CT-HC-5 in the presence of membrane-mimicking bicelles. Thermophoretic mobility was measured in standard capillaries on Monolith NT.115 (NanoTemper Technologies).

SW480 cells = experiment: Toxicity (growth inhibition) for SW-480 cells; format: cell-based, human; set-up: unit not given here
Experimental: as §1

[1] = test system: RKO, HT-29, HCT-116, SW-480, and SW-620 cells; experiment: Cell viability of colon cancer cells (FIGS. 2A-C); format: cell-based; conditions: increasing concentrations, HT-29, HCT-116, SW-480, SW-620
Experimental: The concentration (μM) of the peptide inhibitor is indicated on the x-axis and the percent viability is indicated on the y-axis.
A similar experiment was performed using RKO, HT-29, HCT-116, SW-480, and SW-620 cells. Colorectal adenocarcinoma SW-480 and SW-620 cells have truncated APC protein, which—as discussed above—is a common cause of canonical Wnt pathway activation in colon malignancies.

HCT-116 cells = format: cell-based, human; conditions: 48 h
Experimental: (§2) HeLa, U3A, RKO, HCT-116, and HT-29 cells were exposed to the CT-HC-1, CT-HC-3, CT-HC-5, and CT-HC-8 inhibitors of Example 1 for 48 hours in medium containing 1% bovine fetal serum, and the resulting cell number was evaluated using a MTT assay. Each of these cell lines is relevant to the evaluation of Wnt signaling. Cervical carcinoma HeLa cells overexpress β-catenin (see, e.g., Lee et al., Int. J. Cancer, 124(2): 287-297 (2009); and Lee et al., Gynecol. Oncol., 109(2): 270-274 (2008)). β-catenin is activated in colon carcinoma RKO due to mutation in CDX2 (see, e.g., Dang et al., Oncogene, 20(35): 4884-4890 (2001)). Colon adenocarcinoma HCT116 has elevated mutated β-catenin; however, it was found in the past to be resistant to down regulation of β-catenin (see, e.g., Chan et al., Proc. Natl. Acad. Sci. USA, 99(12): 8265-8270 (2002); and Handeli et al., Mol. Cancer Ther., 7(3): 521-529 (2008)). Colon carcinoma HT-29 has truncated adenomatous polyposis coli (APC) protein, which is a common cause of canonical Wnt pathway activation in colon malignancies. Fibrosarcoma U3A cells are STAT1-negative and have uncharacterized status of Wnt pathway.
(§3) The ability of CT-HC-1 to inhibit growth and to kill cancer cells at different concentrations was further investigated in HeLa, U3A, RKO, HCT-116, and HT-29 cells. The cells were stained with Promega Non-Radioactive Cell Proliferation Assay Kit (MTT) according to the manufacture's protocol. The absorbance of the wells was determined at 544 nm by a FLUOstar/POLARstar Galaxy (BMG Lab Technologies GmbH) Microplate Reader. The assays were performed on control (C) and test (T) cells. Untreated cells were used as a control. Cellular responses were calculated from the data using the following formula: 100×[(T−T0)/(C−T0)] for T>T0 and 100×[(T−T0)/T0] for T<T0. T0 corresponds to cell density at the time of drug addition.

[2] = test system: 4T1 mouse breast cancer cells; experiment: Colony formation by 4T1 cells; format: cell-based; conditions: 5 μM and 10 μM
Text: The activity of compounds in inhibiting colony formation by 4T1 cells was also investigated, which test provides a prediction for compound's potency in vivo.

U3A cells = format: cell-based; conditions: 48 h
Experimental: as §2, §3

HT-29 cells = format: cell-based; conditions: 48 h
Experimental: as §2, §3

HeLa cells = format: cell-based; conditions: 48 h
Experimental: as §2, §3

RKO cells = format: cell-based; conditions: 48 h
Experimental: as §2, §3

CCCCCCCCCCCCCCCC(=O)N[C@@H](C(=O)N[C@H](CCCNC(=N)N)C(=O)N[C@H](Cc1ccccc1)C(=O)N[C@H](CC(C)C)C(=O)N[C@H](CO)C(=O)N[C@H](CO)C(=O)N[C@@H](C(=O)N[C@H](CC(C)C)C(=O)N[C@H](CCC(=O)O)C(=O)N[C@@H](C(=O)N[C@H](CO)C(=O)N[C@H](CC(C)C)C(=O)N[C@H](CCCNC(=N)N)C(=O)N[C@H](CCCCN)C(=O)N[C@H](CCCCN)C(N)=O)C(C)C)[C@H](C)O)[C@H](C)O [CT-HC-5, Pal-TRFLSSTLEVSLRKK-NH2] (Palmitoyl-[dT][dR][dF][dL][dS][dS][dT][dL][dE][dV][dS][dL][dR][dK][dK]-NH2)
4T1 cells TGI (total growth inhibition) (4T1 cells): > 5000 nM
Kd (GFP-tagged beta-catenin): 2700 ± 200 nM
SW480 cells TGI (total growth inhibition) (SW480 cells): 2.5
cell viability [1]: suppression of cell viability
GI50 (HCT-116 cells): 2400 ± 400 nM
colony formation by 4T1 cells [2]: inhibited colony formation
GI50 (U3A cells): 1500 ± 100 nM
GI50 (HT-29 cells): 2000 ± 100 nM
GI50 (HeLa cells): 1200 ± 90 nM
GI50 (RKO cells): 1150 ± 50 nM
